Source: PMC8111401 (Frontiers in Pharmacology, 2021)
Where two headings read alike, the source gives them in different places.

Assays:
[1] = system: radiation pneumonitis; set-up: method as in Gao et al., 2013; settings: delivered as late as 35 days after radiation; ref Gao et al., 2013; cited from earlier work
[2] = in vivo; settings: female, WAG/RijCmcr, rat, plasma, urine
Description: (§1) WAG/RijCmcr female rats were irradiated without the use of anesthetics at 11–12 weeks of age weighing ∼155 g. All irradiations were done between 8–11 am. For leg-out PBI, non-anesthetized rats were immobilized in a plastic jig and irradiated using a XRAD-320 orthovoltage x-ray system (Precision X-Ray, North Branford, Connecticut). […] During the irradiation, each rat was confined in a chamber which allows irradiation of two rats simultaneously. One hind limb of each rat was carefully externalized from the chamber and shielded with a 0.25-inch lead block. The dose to this leg was 2 Gy. The dual-chambered jig was placed on a plane perpendicular to the beam direction, with distance from source to the midline of rats set at 61 cm. […] The irradiation field at midline was large enough to cover both chambers with adequate (at least 2 cm) margins. Supportive care was provided to rats receiving 13 Gy. Supportive care consisted of delivery of the antibiotic Enrofloxacin (10 mg/kg/day) from days 1–14 in the drinking water, and hydration by daily subcutaneous injection of saline (40 ml/kg/day) from days 3–7, post-irradiation.
(§2) Aliquots (0.1 ml) of rat plasma or urine were extracted with ∼3 volumes of cold acidified methanol spiked with enalaprilat as an internal standard (0.3 ml of methanol, 20 µL of 0.1 M HCl and 3 µL of 0.1 mM enalaprilat), mixed well and allowed to stand for 5 min before centrifugation at 14,000 rpm for 5 min at 4°C. […] Samples were injected into C18 reversed phase column (Waters Cortecs UPLC C18 2.1 mm × 50 mm, 1.6 µm) thermostated at 40°C and equilibrated with 0.1% formic acid in water:acetonitrile (95:5).
(§3) Pharmacokinetic (PK) modeling was performed on the data to measure distribution of the drug in different tissues (compartments). The two compartments fitted with observed data were the central compartment (plasma) and the peripheral compartment (internal tissues such as lungs, liver, kidneys, etc.). Administration by gavage was modeled using the gut as a depot to include bioavailability (F) and absorption (k a) from the gut (Figure 1). […] Clearance out of the system was modeled by Cl, the renal clearance rate via urine (Figure 1). The model was fitted using the open-source R package Nonlinear Mixed-Effects Model Development and Simulation (nlmixr) along with related R packages.
(§4) An additive error with compartment-specific variance was assumed for the plasma, peripheral, and urine compartments. Multiple measurements from the same animal were linked via a log-normally distributed multiplicative random effect on the compartment volumes V 2 and V 3.
(§5) The observed measurements are the concentration in plasma, Cplasma and the (cumulative) amount in the urine, Yurine .
(§6) The model was fitted to the plasma and urine data, the accumulation in the peripheral compartment was inferred from the model.

[3] = Lisinopril excreted in 24 h urine, measured by LC-MS/MS; format: in vivo, WAG/RijCmcr rats
Protocol: Urine was collected in a Nalgene rat metabolic cage. A rat was placed in the metabolic cage with access to food and water for 24 h. After 24 h urine volume was recorded, and an aliquot was frozen and stored at −80°C for LC-MS analyses.
Plasma was measured 1–4 times in each animal, at 0, 0.5, 1, 1.5, 2, 2.5, 3, 4, 5, 6, 8, 24 or 48 h after oral gavage, and 5 min, 1.5 and 24 h after intravenous injection.
Aliquots (0.1 ml) of rat plasma or urine were extracted with ∼3 volumes of cold acidified methanol spiked with enalaprilat as an internal standard (0.3 ml of methanol, 20 µL of 0.1 M HCl and 3 µL of 0.1 mM enalaprilat), mixed well and allowed to stand for 5 min before centrifugation at 14,000 rpm for 5 min at 4°C. The supernatant was passed through a Phree phospholipid removal plate (Phenomenex) and the eluate dried completely under a flux of air and reconstituted with 120 µL of LC-MS mobile phase (5% acetonitrile, 95% water, 0.1% formic acid), spiked with 1 µM of lisinopril-d5 used as a second internal standard. […] Samples were injected into C18 reversed phase column (Waters Cortecs UPLC C18 2.1 mm × 50 mm, 1.6 µm) thermostated at 40°C and equilibrated with 0.1% formic acid in water:acetonitrile (95:5). Compounds were eluted by increasing the concentration of acetonitrile in the mobile phase from 5 to 40% over 2.5 min at the flow rate of 0.5 ml/min.

[4] = in vivo; settings: female, WAG/RijCmcr, rat, plasma, po
[5] = set-up: method as in Beermann 1988; settings: humans; ref Beermann 1988; cited from earlier work
[6] = control (nonirradiated) rats; base parameter estimate, two-compartment model
Description: as §1, §2, §3, §4, §5, §6

Q: With CCOC(=O)[C@H](CCc1ccccc1)N[C@@H](C)C(=O)N1CCC[C@H]1C(=O)O [enalapril] as the compound, how does the “Efficacy to mitigate radiation pneumonitis” value [1] read?
A: had efficacy to mitigate radiation pneumonitis

Q: What does the source list for NCCCC[C@H](N[C@@H](CCc1ccccc1)C(=O)O)C(=O)N1CCC[C@H]1C(=O)O [lisinopril]?
A: CL renal [2]: 0.15 mL/min; half-life ([2]; Model-based circulating half-life, irradiated rats): 2.5 h; half-life ([2]; Model-based circulating half-life, non-irradiated rats): 2.8 h; half-life ([2]; Model-based estimate of terminal half-life, irradiated rats): 83 h; half-life ([2]; Model-based estimate of terminal half-life, nonirradiated rats): 65 h; bioavailability ([2]; oral): 25.4%; bioavailability ([2]; po): 19.2%; Measured lisinopril excreted in urine per 300 µg administered, geometric mean ([3]; IV, no radiation): 0.46 µmol; Measured lisinopril excreted in urine per 300 µg administered, geometric mean ([3]; IV, radiation): 0.37 µmol; Measured lisinopril excreted in urine per 300 µg administered, geometric mean ([3]; gavage, no radiation): 0.072 µmol; Measured lisinopril excreted in urine per 300 µg administered, geometric mean ([3]; gavage, radiation): 0.11 µmol; Tmax [4]: 2 to 3 h; Half-life of prolonged terminal phase [5]: 46.7 h; Time of peak serum levels [5]: 6 to 8 h; Inter-individual variation (irradiated rats, 90 min after IV injection): 1.8 fold; Inter-individual variation (irradiated rats, 90 min after oral gavage (data not shown)): 2.7 fold; Inter-individual variation (non-irradiated rats, 90 min after oral gavage (data not shown)): 1.6 fold; Inter-individual variation (nonirradiated rats injected with lisinopril (result not shown)): 3-4 fold; Central volume [6]: 0.008 L; Peripheral volume (lung) [6]: 0.513 L
